# Where a SMILES comes first, the peptide text is derived from it. Bridges are numbered along the chain shown (N, C = ends). [ ]: non-standard residue; d: D form. aThr = C[C@H](O)[C@H](N)C(=O)O
# Assays:
# ACHN = test: Cytotoxicity against human ACHN cells after 72 hrs by fluorometric microculture cytotoxicity assay; type: functional, cell-based
# CCRF-CEM = test: Cytotoxicity against human CCRF-CEM cells after 72 hrs by fluorometric microculture cytotoxicity assay; type: functional, cell-based
# RPMI-8226 = test: Cytotoxicity against human RPMI8226/S cells after 72 hrs by fluorometric microculture cytotoxicity assay; type: functional, cell-based
# U-937/GTB = test: Cytotoxicity against human U937/GTB cells after 72 hrs by fluorometric microculture cytotoxicity assay; type: functional, cell-based
# [1] = Hemolytic activity in human RBC; type: ADME, cell-based, Erythrocyte; details: human red blood cells, read-out: HD50 (the source's name)
# R1 = test: Cytotoxicity against mouse R1 cells after 72 hrs by fluorometric microculture cytotoxicity assay; type: cell-based; details: R1, 72 h
# [2] = Cytotoxicity against human 8226/LR-5 cells after 72 hrs by fluorometric microculture cytotoxicity assay; type: functional, cell-based
# [3] = Cytotoxicity against human CEM/VM1 cells after 72 hrs by fluorometric microculture cytotoxicity assay; type: functional, cell-based; details: CEM-VM1, 72 h
# [4] = Cytotoxicity against human 8226/DOX40 cells after 72 hrs by fluorometric microculture cytotoxicity assay; type: functional, cell-based
# U-937 = test: Cytotoxicity against human vincristine-resistant U937 cells after 72 hrs by fluorometric microculture cytotoxicity assay; type: functional, cell-based; details: U-937, 72 h
# [5] = test system: Human immunodeficiency virus 1; test: Antiviral activity against HIV1 infected in human CEM-SS cells assessed as protection against virus-induced cytopathic effect by XTT method; type: functional, organism-based; details: Human immunodeficiency virus 1, CEM-SS
# [6] = Hemolytic activity in human type A RBC; type: ADME, cell-based, Erythrocyte; details: human type A red blood cells, read-out: HD50 (the source's name)
# Escherichia coli = test: Antimicrobial activity against Escherichia coli ATCC 25922; type: functional
# Staphylococcus aureus = test: Antimicrobial activity against Staphylococcus aureus ATCC 29213; type: functional
# Pseudomonas aeruginosa = test: Antimicrobial activity against Pseudomonas aeruginosa ATCC 27853; type: functional
# Proteus vulgaris = test: Antimicrobial activity against Proteus vulgaris ATCC 49132; type: functional
# Klebsiella oxytoca = test: Antimicrobial activity against Klebsiella oxytoca ATCC 49131; type: functional
# CEM-SS (Homo sapiens) = test: Cytotoxicity against human CEM-SS cells
# Kluyveromyces marxianus = test: Antimicrobial activity against Candida kefyr ATCC 37095; type: functional
# Candida tropicalis = test: Antimicrobial activity against Candida tropicalis ATCC 37097; type: functional
# [7] = Hemolytic activity in human type A RBC assessed as concentration required to cause 11% hemolysis after 1 hr by microtitre plate; type: ADME, cell-based; details: erythrocyte
smiles,measurement,setting,value
CC(C)C[C@@H]1NC(=O)CNC(=O)[C@H](CC(N)=O)NC(=O)[C@H](CCCNC(=N)N)NC(=O)[C@H]([C@@H](C)O)NC(=O)[C@@H]2CSSC[C@@H]3NC(=O)[C@H]([C@@H](C)O)NC(=O)CNC(=O)CNC(=O)[C@H](C(C)C)NC(=O)[C@@H]4CSSC[C@H](NC(=O)[C@H](CO)NC(=O)[C@H](CSSC[C@H](NC(=O)[C@H](C(C)C)NC(=O)[C@@H]5CCCN5C1=O)C(=O)NCC(=O)N[C@@H](CCC(=O)O)C(=O)N[C@@H]([C@@H](C)O)C(=O)N4)NC(=O)CNC(=O)[C@@H]1CCCN1C(=O)[C@H]([C@@H](C)O)NC(=O)[C@H](CC(N)=O)NC3=O)C(=O)N[C@@H](CO)C(=O)N[C@@H](Cc1c[nH]c3ccccc13)C(=O)N1CCC[C@H]1C(=O)N[C@@H](C(C)C)C(=O)N2,IC50,ACHN,2730 nM
same,IC50,CCRF-CEM,2730 nM
same,IC50,RPMI-8226,2730 nM
same,IC50,U-937/GTB,2730 nM
same,HC50,[1],50 µM
same,IC50,R1,2730 nM
same,IC50,[2],2730 nM
same,IC50,[3],2730 nM
same,IC50,[4],2730 nM
same,IC50,U-937,2730 nM
"CC[C@H](C)[C@@H]1NC(=O)[C@@H]2CCCN2C(=O)[C@H](C(C)C)NC(=O)CNC(=O)[C@H](CC(N)=O)NC(=O)[C@H](CCCNC(=N)N)NC(=O)[C@H]([C@@H](C)O)NC(=O)[C@@H]2CSSC[C@@H]3NC(=O)[C@H]([C@@H](C)O)NC(=O)CNC(=O)[C@H](CC(C)C)NC(=O)[C@H]([C@@H](C)O)NC(=O)[C@@H]4CSSC[C@H](NC(=O)[C@H](CO)NC(=O)[C@H](CSSC[C@H](NC1=O)C(=O)NCC(=O)N[C@@H](CCC(=O)O)C(=O)N[C@@H]([C@@H](C)O)C(=O)N4)NC(=O)CNC(=O)[C@H](C)NC(=O)[C@H]([C@@H](C)O)NC(=O)[C@H](Cc1ccc(O)cc1)NC3=O)C(=O)N[C@@H](CO)C(=O)N[C@@H](Cc1c[nH]c3ccccc13)C(=O)N1CCC[C@H]1C(=O)N[C@@H](C(C)C)C(=O)N2 (cyclo(AGCSCSWPVCTRNGVPICGETCTLGTCYT); disulfide 3-18, 5-22, 10-27)",IC50,ACHN,2630 nM
same,IC50,CCRF-CEM,2630 nM
same,IC50,RPMI-8226,2630 nM
same,IC50,U-937/GTB,2630 nM
same,IC50,R1,2630 nM
same,IC50,[2],2630 nM
same,IC50,[3],2630 nM
same,IC50,[4],2630 nM
same,IC50,U-937,2630 nM
"CC[C@H](C)[C@@H]1NC(=O)[C@H](CCSC)NC(=O)[C@H](C)NC(=O)[C@@H]2CSSC[C@@H]3NC(=O)[C@H](CO)NC(=O)[C@@H]4CSSC[C@H](NC(=O)[C@H](CO)NC(=O)[C@H]([C@@H](C)CC)NC(=O)[C@H](CO)NC(=O)[C@H](CC(N)=O)NC(=O)[C@H](CC(C)C)NC(=O)[C@H](Cc5ccc(O)cc5)NC(=O)[C@H](CSSC[C@H](NC(=O)[C@H](Cc5ccccc5)NC(=O)[C@H](CO)NC1=O)C(=O)N[C@@H](Cc1ccccc1)C(=O)N[C@@H]([C@@H](C)O)C(=O)N[C@@H](CCC(=O)O)C(=O)N[C@@H](C(C)C)C(=O)N[C@@H]([C@@H](C)CC)C(=O)NCC(=O)N4)NC(=O)[C@H](C(C)C)NC(=O)[C@H](CCCCN)NC(=O)[C@H](CC(N)=O)NC(=O)[C@H](CCCCN)NC3=O)C(=O)NCC(=O)N[C@@H](CCC(=O)O)C(=O)N[C@@H](CO)C(=O)N2 (cyclo(AMISFCFTEVIGCSCKNKVCYLNSISCGESC); disulfide 6-20, 13-27, 15-31)",EC50,[5],870 nM
"CC[C@H](C)[C@@H]1NC(=O)[C@@H]2CSSC[C@@H]3NC(=O)[C@H](C(C)C)NC(=O)[C@H](CCCCN)NC(=O)[C@H](CC(N)=O)NC(=O)[C@H](CCCCN)NC(=O)[C@@H]4CSSC[C@H](NC(=O)[C@H](CO)NC(=O)[C@H](CCC(=O)O)NC(=O)CNC(=O)[C@H](CSSC[C@H](NC(=O)CNC(=O)[C@H](CC(C)C)NC(=O)[C@H](CC(C)C)NC(=O)[C@H]([C@@H](C)O)NC(=O)[C@H](CO)NC1=O)C(=O)N[C@@H](CO)C(=O)N4)NC(=O)[C@@H]1CCCN1C(=O)[C@H]([C@@H](C)CC)NC(=O)[C@H](C(C)C)NC(=O)CNC(=O)[C@H](CC(N)=O)NC(=O)[C@H](CCCNC(=N)N)NC(=O)[C@H](Cc1ccc(O)cc1)NC3=O)C(=O)N[C@@H](C(C)C)C(=O)N[C@@H](Cc1ccccc1)C(=O)N[C@@H]([C@@H](C)CC)C(=O)N1CCC[C@H]1C(=O)N2 [CIRCULIN B] (cyclo(CGESCVFIPCISTLLGCSCKNKVCYRNGVIP); disulfide 1-17, 5-19, 10-24)",HC50,[6],550 µM
same,MIC,Escherichia coli,0.41 µM
same,MIC,Staphylococcus aureus,13.5 µM
same,MIC,Pseudomonas aeruginosa,25.5 µM
same,MIC,Proteus vulgaris,6.8 µM
same,IC50,R1,820000 nM
same,MIC,Klebsiella oxytoca,8.2 µM
same,IC50,CEM-SS (Homo sapiens),500 nM
same,MIC,Kluyveromyces marxianus,29 µM
CC[C@H](C)[C@@H]1NC(=O)[C@@H]2CCCN2C(=O)[C@H](CS)NC(=O)CNC(=O)[C@H](CCC(=O)O)NC(=O)[C@H](CO)NC(=O)[C@H](CS)NC(=O)[C@H](C(C)C)NC(=O)[C@H](Cc2ccccc2)NC(=O)[C@H]([C@@H](C)CC)NC(=O)[C@@H]2CCCN2C(=O)[C@H](CS)NC(=O)[C@H]([C@H](C)O)NC(=O)[C@H](C(C)C)NC(=O)[C@H]([C@H](C)O)NC(=O)[C@H](C)NC(=O)[C@H](CC(C)C)NC(=O)[C@H](CC(C)C)NC(=O)CNC(=O)[C@H](CS)NC(=O)[C@H](CO)NC(=O)[C@H](CS)NC(=O)[C@H](CCCCN)NC(=O)[C@H](CO)NC(=O)[C@H](CCCCN)NC(=O)[C@H](C(C)C)NC(=O)[C@H](CS)NC(=O)[C@H](Cc2ccc(O)cc2)NC(=O)[C@H](CCCCN)NC(=O)[C@H](CC(N)=O)NC(=O)[C@H](CO)NC1=O [CYCLOPSYCHOTRIDE A] (cyclo(A[aThr]V[aThr]CPIFVCSEGCPISNKYCVKSKCSCGLL)),MIC,Candida tropicalis,56.5 µM
same,HC50,[6],405 µM
same,MIC,Escherichia coli,1.55 µM
same,MIC,Staphylococcus aureus,39 µM
same,MIC,Pseudomonas aeruginosa,13.5 µM
same,MIC,Proteus vulgaris,13.2 µM
same,MIC,Klebsiella oxytoca,5.8 µM
same,MIC,Kluyveromyces marxianus,14 µM
"CC[C@H](C)[C@@H]1NC(=O)[C@H](CO)NC(=O)CNC(=O)[C@H](CC(N)=O)NC(=O)[C@H](CCCCN)NC(=O)[C@H](C)NC(=O)[C@@H]2CSSC[C@@H]3NC(=O)[C@H](CCCCN)NC(=O)CNC(=O)[C@H](C)NC(=O)[C@H](Cc4ccccc4)NC(=O)[C@@H]4CSSC[C@H](NC(=O)[C@H](CO)NC(=O)[C@H](CSSC[C@H](NC(=O)[C@H](C)NC(=O)[C@@H]5CCCN5C1=O)C(=O)NCC(=O)N[C@@H](CCC(=O)O)C(=O)N[C@@H](CO)C(=O)N4)NC(=O)CNC(=O)[C@@H]1CCCN1C(=O)[C@H]([C@@H](C)O)NC(=O)[C@H](Cc1ccc(O)cc1)NC3=O)C(=O)N[C@@H](CO)C(=O)N[C@@H](CCCCN)C(=O)N[C@@H](Cc1ccc(O)cc1)C(=O)N1CCC[C@H]1C(=O)N[C@@H](CC(C)C)C(=O)N2 [CYCLOVIOLACIN O14] (cyclo(ACGESCFAGKCYTPGCSCSKYPLCAKNGSIP); disulfide 2-16, 6-18, 11-24)",Activity,[7],25 µM
"CC[C@H](C)[C@@H]1NC(=O)[C@@H]2CCCN2C(=O)[C@H](Cc2ccc(O)cc2)NC(=O)[C@H](CO)NC(=O)[C@@H]2CSSC[C@@H]3NC(=O)[C@H]([C@@H](C)O)NC(=O)[C@H](CCC(=O)O)NC(=O)CNC(=O)[C@@H]4CSSC[C@H](NC(=O)CNC(=O)[C@@H]5CCCN5C(=O)[C@H]([C@@H](C)O)NC(=O)[C@H](Cc5ccc(O)cc5)NC(=O)[C@H](CSSC[C@H](NC1=O)C(=O)N[C@@H](CCCCN)C(=O)N[C@@H](CCCCN)C(=O)N[C@@H](CC(N)=O)C(=O)NCC(=O)N[C@@H](CC(C)C)C(=O)N[C@@H](C(C)C)C(=O)N1CCC[C@H]1C(=O)N4)NC(=O)[C@H](CCCCN)NC(=O)CNC(=O)[C@H]([C@@H](C)O)NC(=O)[C@H](Cc1ccccc1)NC3=O)C(=O)N[C@@H](CO)C(=O)N2 [CYCLOVIOLACIN O15] (cyclo(CFTGKCYTPGCSCSYPICKKNGLVPCGET); disulfide 1-13, 6-18, 11-26)",Activity,[7],25 µM
CC(C)C[C@@H]1NC(=O)CNC(=O)[C@H](CC(N)=O)NC(=O)[C@H](C)NC(=O)[C@H]([C@@H](C)O)NC(=O)[C@@H]2CSSC[C@@H]3NC(=O)[C@H]([C@@H](C)O)NC(=O)CNC(=O)CNC(=O)[C@H](C(C)C)NC(=O)[C@@H]4CSSC[C@H](NC(=O)[C@H](CO)NC(=O)[C@H](CSSC[C@H](NC(=O)[C@H](C(C)C)NC(=O)[C@@H]5CCCN5C1=O)C(=O)NCC(=O)N[C@@H](CCC(=O)O)C(=O)N[C@@H]([C@@H](C)O)C(=O)N4)NC(=O)CNC(=O)[C@@H]1CCCN1C(=O)[C@H]([C@@H](C)O)NC(=O)[C@H](CC(N)=O)NC3=O)C(=O)N[C@@H](CO)C(=O)N[C@@H](CCCNC(=N)N)C(=O)N1CCC[C@H]1C(=O)N[C@@H](C(C)C)C(=O)N2 [VIOLAPEPTIDE 1],HC50,[1],50 µM

# — ChEMBL document CHEMBL1799917, “Isolation, sequencing, and structure-activity relationships of cyclotides” (J Nat Prod, 2010)
